This test has as its system S. cerevisiae Burl-1 ts mutant growth, BacTiter-Glo, 38.5C 24 h. Briefly: growth induction of Burl-1 ts yeast mutant, dose response, counter-screen for SUMOylation pathway inhibitor project, whole organism, S. cerevisiae, luminescence (AID 463199). (In general: A counterscreen serves to expose hits that act by an unwanted route or on another target.)

By AC50 is commonly meant the concentration giving half of the maximal activity seen.

The source made the active and inactive calls.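 Rule for the calls: active = AC50, the dose giving half-maximal effect, exceeds a fixed cutoff for a compound that rescues yeast growth under heat; inactive = the rest, inconclusive results apart.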

Consider `COc1ccc(/C=C/C(=O)N2CCC(C(N)=O)CC2)cc1S(=O)(=O)N1CCOCC1`, for which the AC50 was > 42 µM (inactive).

Turning to `COc1ccc(NC(=O)C2CCN(c3cc(C)nc(-c4ccccc4)n3)CC2)cc1`, the AC50 is > 42 µM (inactive).

For `O=C(O)C1C(C(=O)O)C2(Cl)C(Cl)=C(Cl)C1(Cl)C2(Cl)Cl` (centres undefined), the AC50 is > 42 µM (inactive).

Turning to `CC(=O)Nc1ccc(S(=O)(=O)Nc2ccc(S(=O)(=O)Nc3ncccn3)cc2)cc1`, the AC50 was > 42 µM (inactive).

As for `O=C(CCCC(=O)N/N=C/c1ccccc1C(=O)O)N/N=C/c1ccccc1C(=O)O`, the AC50 was > 42 µM (inactive).

As for `Cc1cc2c3c(c1)C1(SCC(=O)N1c1ccc(F)cc1)C(=O)N3C(C)(C)CC2C` (centres undefined), the AC50 is > 42 µM (inactive).

In the case of `O=C(NCc1cccnc1)Nc1ccccc1`, the AC50 is > 42 µM (inactive).

Turning to `N#CC1=C(N)Nc2ncnn2C1c1ccc([N+](=O)[O-])cc1` (centres undefined), the AC50 was > 42 µM (inactive).

Consider `COc1cccc(/C=N/n2cnc3ccccc32)c1OC`, for which the AC50 was > 42 µM (inactive).

For the compound `O=[N+]([O-])c1cccc(-c2nc3ccc([N+](=O)[O-])cc3[nH]2)c1`, the AC50 was > 42 µM (inactive).

`COc1ccc2c(C(=O)CN3CC(C)OC(C)C3)c[nH]c2c1` (centres undefined): the AC50 is > 42 µM (inactive).

For the compound `O=c1[nH][nH]c(C(F)(F)F)c1C=NCc1cccs1`, the AC50 is > 42 µM (inactive).

Consider `CC(Oc1ccccc1[N+](=O)[O-])C(=O)N/N=C/c1ccoc1` (centres undefined), for which the AC50 is > 42 µM (inactive).

With `CN1CCCC(n2nc(Cc3ccc(Cl)cc3)c3ccccc3c2=O)CC1` (centres undefined), the AC50 is > 42 µM (inactive).

For the compound `CC(C)(C)C(=O)C(Cl)C(=O)Nc1ccccc1` (centres undefined), the AC50 was > 42 µM (inactive).

In the case of `COc1cccc(-c2ocnc2C(=O)Nc2ccc3c(c2)CCC3)c1`, the AC50 was > 42 µM (inactive).

On to `Cc1ccc(NC(=S)NC(NC(=O)c2ccccc2C)C(Cl)(Cl)Cl)c(C)c1` (centres undefined), for which the AC50 was > 42 µM (inactive).

On to `COc1ccc(Oc2c(C)oc3cc(OC(=O)N(C)C)ccc3c2=O)cc1`, for which the AC50 is > 42 µM (inactive).

Turning to `CC(C)CNc1cc(=O)n(C)c(=O)n1C`, the AC50 is > 42 µM (inactive).

As for `COCC(=O)NNC(=O)c1ccccc1OC`, the AC50 was > 42 µM (inactive).

For the compound `S=c1[nH]nc(-c2ccco2)n1-c1ccc(Br)cc1`, the AC50 is > 42 µM (inactive).

As for `Cc1ccc(C)c(C(C)NC(=O)c2ccncc2)c1` (centres undefined), the AC50 is > 42 µM (inactive).

For the compound `O=C(Nc1cccnc1Cl)c1cc2ccccc2o1`, the AC50 was > 42 µM (inactive).

As to `CCN1CCN(C(=O)c2ccc3nc(-c4ccccc4)c(-c4ccccc4)nc3c2)CC1`, the AC50 is > 42 µM (inactive).

With `O=C(NC1CCCC1)C(c1cccs1)N(C(=O)c1ccno1)c1ccccc1` (centres undefined), the AC50 is > 42 µM (inactive).

For the compound `Cc1c(OC(C)C(=O)N2C[C@H]3C[C@@H](C2)c2cccc(=O)n2C3)ccc2c3c(c(=O)oc12)CCCC3` (some centres undefined), the AC50 was > 42 µM (inactive).

With `O=C(Nc1ccccc1N1CCN(c2ccccc2)CC1)c1cccc(F)c1`, the AC50 is > 42 µM (inactive).

`N=c1sccn1CC(=O)Nc1cccc(S(N)(=O)=O)c1`: the AC50 was > 42 µM (inactive).

Turning to `Cn1c(CN2CCOCC2)nnc1SCC(N)=O`, the AC50 was > 42 µM (inactive).

As to `O=c1[nH]nc(Cc2ccc(-c3ccccc3Cl)o2)c2ccccc12`, the AC50 is > 42 µM (inactive).

With `Cc1nc(-c2ccncc2)sc1C(=O)Nc1ccc(Br)cc1`, the AC50 was > 42 µM (inactive).

Turning to `COc1cccc(NC(=O)CNC(=O)c2ccc(C)cc2)c1`, the AC50 was > 42 µM (inactive).

Consider `CC1=C(C#N)S(=O)(=O)C(C#N)C(c2ccccc2)C1` (centres undefined), for which the AC50 is > 42 µM (inactive).

Take `COc1cc(NC(=O)c2cc(Cl)ccc2Cl)ccc1-c1cc2ccccc2oc1=O`: the AC50 was > 42 µM (inactive).

Take `COc1ccc(C(=O)O)cc1S(=O)(=O)NCCN(C)C`: the AC50 is > 42 µM (inactive).

Turning to `CCOc1ccccc1CN1CCN(Cc2ccon2)CC1CCO` (centres undefined), the AC50 was > 42 µM (inactive).

On to `Cc1cc(C)nc(-n2nc(C)cc2NC(=O)CNCc2ccccc2)n1`, for which the AC50 was > 42 µM (inactive).

For `COc1ccc(CCNC(=O)Cn2nnc(-c3ccc(N4CCOCC4)cc3)n2)cc1OC`, the AC50 was > 42 µM (inactive).

With `COc1ccccc1CNC(=O)CN(c1ccc(C)cc1)S(=O)(=O)c1c(C)n[nH]c1C`, the AC50 is > 42 µM (inactive).

Regarding `Cc1ccc(S(=O)(=O)NCC(C)n2cncn2)cc1` (centres undefined), the AC50 is > 42 µM (inactive).

As for `O=C(Nc1ccc2[nH]c(=O)[nH]c2c1)c1c(F)c(F)c(F)c(F)c1F`, the AC50 was 25.8 µM.

With `CS(=O)(=O)Nc1ccccc1C(=O)NCCSCc1ccccc1`, the AC50 is > 42 µM (inactive).

In the case of `CCN(CC)S(=O)(=O)c1ccc(S(=O)(=O)N2CCC(C(=O)NC3CCN(Cc4ccccc4)CC3)CC2)cc1`, the AC50 is > 42 µM (inactive).

Regarding `CC1CC(c2ccccc2)NS(=O)(=O)O1` (centres undefined), the AC50 was > 42 µM (inactive).

For `O=C(NCC1CCCO1)C1CC(c2ccc(Cl)c(Cl)c2)=NO1` (centres undefined), the AC50 is > 42 µM (inactive).

Consider `O=C(CSc1cccc2cccnc12)Nc1cc(C(=O)O)cc(C(=O)O)c1`, for which the AC50 was > 42 µM (inactive).

With `Cc1cc(C)cc(OCC(=O)Nc2ccc(N3CCN(C(=O)c4ccco4)CC3)cc2)c1`, the AC50 is > 42 µM (inactive).

For the compound `COc1ccc(/C=N/NC(=O)CCC(=O)Nc2ccccc2)cc1OC`, the AC50 is > 42 µM (inactive).

As for `CCOC(=O)C1=C(C)NC(=O)CC1c1cc2c(cc1[N+](=O)[O-])OCO2` (centres undefined), the AC50 was 22.3 µM.

Turning to `CCOc1ccc2nc(CN3CCN(Cc4ccccc4OCC)C(CCO)C3)ccc2c1` (centres undefined), the AC50 was > 42 µM (inactive).

Take `CC1(C)Oc2ccc3ccc(=O)oc3c2/C(=C/Nc2ccc(O)cc2)C1=O`: the AC50 is > 42 µM (inactive).

As for `COc1cc(O)oc1C=Nc1ccc(C(=O)O)cc1`, the AC50 is > 42 µM (inactive).

As for `COc1ccc(NC(=O)CSc2nccc(C)n2)cc1`, the AC50 is > 42 µM (inactive).

For the compound `CN(CCOc1ccc(-c2ccn(S(=O)(=O)c3cccc4ccccc34)n2)cc1)c1ccccn1`, the AC50 is > 42 µM (inactive).

As to `CCn1c(SCC(=O)OC)nnc1-c1ccncc1`, the AC50 is > 42 µM (inactive).

Regarding `COCCN1C(=O)/C(=C/c2cc3c(cc2Br)OCO3)NC1=S`, the AC50 is > 42 µM (inactive).

For the compound `CCOC(=O)c1c(C)[nH]c2c1cc(O)c1ccccc12`, the AC50 is > 42 µM (inactive).

As for `CCS(=O)(=O)N1CCCC(C(=O)NCc2cccnc2)C1` (centres undefined), the AC50 was > 42 µM (inactive).

For the compound `Cc1ccc(C)c(NC(=O)COC(=O)c2ccc3c(c2)OCO3)c1`, the AC50 is > 42 µM (inactive).

Consider `CCOc1ccccc1C(=O)NCc1ccc2c(c1)OCO2`, for which the AC50 was > 42 µM (inactive).

For the compound `Clc1ccc(N=c2ssnc2Cl)nc1`, the AC50 was > 42 µM (inactive).

Consider `O=C(c1cc2ccccc2o1)N1CCCC1`, for which the AC50 was > 42 µM (inactive).

On to `CN(C(=O)CSc1nc(-c2ccccc2)c(-c2ccccc2)o1)C1CCS(=O)(=O)C1` (centres undefined), for which the AC50 was > 42 µM (inactive).

Consider `O=c1cc(C(F)(F)F)c2sc(N3CCCCC3)nc2[nH]1`, for which the AC50 is > 42 µM (inactive).

Regarding `COC(=O)c1ccc(SCC(=O)N2CCC(C)CC2)c([N+](=O)[O-])c1`, the AC50 was > 42 µM (inactive).

`NS(=O)(=O)c1ccc(CCNC(=O)c2ccc([N+](=O)[O-])s2)cc1`: the AC50 is > 42 µM (inactive).

For the compound `COc1cc(/C=C(\C#N)C(=O)Nc2ccc(C(=O)O)cc2)ccc1OC(=O)c1cccc(F)c1`, the AC50 is > 42 µM (inactive).

`On1c(-c2ccccc2Cl)nc2ncccc21`: the AC50 was > 42 µM (inactive).

For `CCc1ccc2nc(-c3cccc(C)c3)nc(SCC(=O)NCC3CCCO3)c2c1` (centres undefined), the AC50 is > 42 µM (inactive).

For the compound `CC(C)C(OC(=O)CN1C(=O)COc2ccccc21)C(=O)NC1CCCC1` (centres undefined), the AC50 was > 42 µM (inactive).

Regarding `O=C(N1CCOCC1)C1(S(=O)(=O)c2ccccc2)CC=CC1`, the AC50 is > 42 µM (inactive).

Turning to `COc1ccccc1C(=O)NCCNc1ccc([N+](=O)[O-])cc1Cl`, the AC50 is > 42 µM (inactive).

On to `O=C(O)CNS(=O)(=O)Cc1ccccc1`, for which the AC50 is > 42 µM (inactive).

`Oc1c(Br)cc(Br)cc1C=Nc1ccc2[nH]ncc2c1`: the AC50 was > 42 µM (inactive).

For `O=c1c2ccccc2nc(COc2ccccc2)n1/N=C/c1cn[nH]c1-c1ccccc1`, the AC50 was > 42 µM (inactive).

Consider `Cc1ccc(OCC(=O)NN2C(=O)c3ccccc3C2=O)c(C)c1`, for which the AC50 is > 42 µM (inactive).

For the compound `CCC1(c2ccccc2)NC(=O)N(CC(=O)N(C)CC(=O)Nc2ccc(F)c(F)c2F)C1=O` (centres undefined), the AC50 was > 42 µM (inactive).

`CCc1nnc(NC(=O)c2cccc(S(=O)(=O)N3CCN(c4ccccc4)CC3)c2)s1`: the AC50 was > 42 µM (inactive).

Turning to `CCN(CC)/C(=N\S(=O)(=O)c1ccc(F)cc1)c1ccccc1`, the AC50 is > 21 µM (inactive).

Regarding `COC(=O)C(CC(C)C)NC(=O)CNC(=O)c1ccccc1C` (centres undefined), the AC50 is > 42 µM (inactive).

Turning to `Cc1nc(SCC(=O)O)n[nH]1`, the AC50 is > 42 µM (inactive).

Consider `Cc1ccc(C(=O)NCC(=O)Nc2ccc3c(c2)OCCO3)cc1`, for which the AC50 is 18.5 µM.

On to `CC(C)c1onc(C(=O)N(C)Cc2ccccc2)c1[N+](=O)[O-]`, for which the AC50 was > 42 µM (inactive).

In the case of `CC(=O)Nc1ccc(C(=O)NCCCOC(C)C)cc1`, the AC50 was > 42 µM (inactive).

With `CC(C)(C)C1c2[nH]c3ccccc3c2CCN1Cc1cccc(OCCO)c1` (centres undefined), the AC50 is > 42 µM (inactive).

For the compound `O=C(c1ccccc1F)N1CCCc2ccccc21`, the AC50 was > 42 µM (inactive).

For the compound `Cc1ccc(S(=O)(=O)N(C)c2ccc(OC(=O)CN3C(=O)NC4(CCCC4)C3=O)cc2)cc1C`, the AC50 was > 42 µM (inactive).

On to `CSc1ccccc1-c1nc(-c2ccncc2)no1`, for which the AC50 is > 42 µM (inactive).

As for `Cc1cc(=O)oc(C)c1C(=O)Nc1ccc(Cl)cn1`, the AC50 is > 42 µM (inactive).
